# Test results taken from patent US5719154A, “Oxazolidinone antibacterial agents having a six-membrane heteroaromatic ring” (priority 1996, dated 1998).
# Assays:
# [1] = test system: S. aureus UC ® No. 9213; assay: Murine Assay, in vivo antimicrobial activity (ED50 from mortality ratios) against S. aureus UC No. 9213; set-up: species or system Staphylococcus aureus (infected female mice); conditions: oral or subcutaneous, survival six days; for ED50: Staphylococcus aureus, UC9213, 144 h, female mice infected intraperitoneally with S. aureus UC No. 9213, drug one hour and five hours after infection, probit analysis
# Description: Antimicrobial activity is tested in vivo using the Murine Assay procedure. Groups of female mice (six mice weighing 18-20 grams each) are injected intraperiteneally with bacteria which are thawed just prior to use and suspended in brain heart infusion with 4% brewers yeast (Staphylococcus aureus) or brain heart infusion (Streptecoccus species). Antibiotic treatment at six dose levels per drug is administered one hour and five hours after infection by either oral intubation or subcutaneous routes. Survival is observed daily for six days. ED50 values based on mortality ratios are calculated using probit analysis. The subject compounds are compared against drug U-100592 as controls. […] The detailed information with respect to the structure and in vivo efficacy evaluations of U-100592 is summarized in Upjohn Oxazolidinone Antibacterial Agents, Posters Presented at the 35th Interscience Conference on Antimicrobial Agents and Chemotherapy, San Francisco, 17-20 September 1995.
# [2] = test system: bacteria (Staphylococcus aureus or Streptecoccus species); conditions: extensively evaluated in this animal model versus vancomycin; cited from earlier work
Structure (SMILES),ED50 [1],potency versus vancomycin [2],"U-100592 ED50 ([1]; comparator control for the Example of the same line, female mice, S. aureus UC No. 9213, 8640 min)"
CC(=O)NC[C@H]1CN(c2ccc(N3CCN(c4ncccn4)CC3)c(F)c2)C(=O)O1 [Example 1],6.2 mg/kg,,
CC(=O)NC[C@H]1CN(c2ccc(N3CCN(c4ccncn4)CC3)c(F)c2)C(=O)O1 [Example 2],4.4 mg/kg,,
CC(=O)NC[C@H]1CN(c2ccc(N3CCN(c4cccnn4)CC3)c(F)c2)C(=O)O1 [Example 3],8.8 mg/kg,,
CC(=O)NC[C@H]1CN(c2ccc(N3CCN(c4ccc(C)nn4)CC3)c(F)c2)C(=O)O1 [Example 4],6.3 mg/kg,,
"CC(=O)NC[C@H]1CN(c2ccc(N3CCN(C(=O)CO)CC3)c(F)c2)C(=O)O1 [Example U-100592, reference compound]",,equipotent to vancomycin,8.7 mg/kg
